The values below are quoted from earlier work in US20260185050A1, “BIOLOGIC INTERFACIAL TISSUE-ENGINEERED SYSTEMS USEFUL AS ARTHROPOD BITEMODEL” (UNIVERSITY OF CENTRAL FLORIDA RESEARCH FOUNDATION, INC., priority 2022, published 2026).

As a reminder, the pKa is the negative logarithm of the acid dissociation constant.

The conditions of series [1]: C5 epimers of alginate.
Another series has as its system Aedes aegypti. The conditions noted are these: selective dose response work, males and females.
The subject of the next series is Aedes albopictus. The conditions noted are these: selective dose response work, males and females.
The next series has as its system Culex pipiens. The conditions noted are these: select experiments.

The structures appear in SMILES notation.

On to `O=C(O)[C@H]1O[C@@H](O)[C@@H](O)[C@@H](O)[C@@H]1O` [M, β-D-mannuronate], for which the pKa in series [1] was 3.38.

Turning to `O=C(O)[C@@H]1O[C@@H](O)[C@@H](O)[C@@H](O)[C@@H]1O` [G, α-L-guluronate], the pKa in series [1] is given as 3.65.

On to `CC(O)CO` (centres unmarked) [propylene glycol], for which the “kill performance versus erythritol” value in the series with Aedes aegypti, in the series with Aedes albopictus and in the series with Culex pipiens was “outperform erythritol” throughout.
